Experimental data: patent US9944607B2, “Thiohydantoin derivatives and uses thereof” (Whitehead Institute for Biomedical Research, priority 2012, dated 2018)
Converted amounts (≈) assume the structure as drawn. Like-named read-outs stand apart in the source and are kept apart here. One block for each compound: values may come before it.

What was measured:
Candida albicans CaCi-2 = assay: Primary assay: C. albicans CaCi-2 growth inhibition (Alamar Blue); type: cell-based; conditions: for Drop in activity / potency relative to hit CID3889161: C. albicans growth inhibition; for Activity against C. albicans: CaCi-2, or both test strains (CaCi-2, CaCi-17) where the sentence names none; for Growth Inhibition Activity, IC50 (μM), C. albicans (n = 3) CaCi-2 / IC50: 48 hours, tested up to 26 μM, n = 3; for IC50: read-out: Growth Inhibition Activity, IC50 (μM), C. albicans (n = 3) CaCi-2
Candida albicans CaCi-17 = assay: Primary assay: C. albicans CaCi-17 growth inhibition (Alamar Blue); type: cell-based; conditions: for Growth Inhibition Activity, IC50 (μM), C. albicans (n = 3) CaCi-17 / IC50: 48 hours, tested up to 26 μM, n = 3; for IC50: read-out: Growth Inhibition Activity, IC50 (μM), C. albicans (n = 3) CaCi-17
[1] = test system: NIH-3T3 mammalian fibroblasts; assay: Counterscreen mammalian cell toxicity assay (Alamar Blue); type: cell-based, murine; conditions: n = 1, 48 hours, tested up to 26 μM; for IC50: read-out: Growth Inhibition Activity, IC50 (μM), 3T3 Fibroblasts (n = 1)
Description: Quiescent murine fibroblasts were subjected to incubation with compounds of interest for 48 hours. Subsequent cell viability was determined via measuring Alamar Blue fluorescence.
Procedures • After overnight culture, pin compounds into wells at 100 nL/well using the CyBio CyBi-Well pinning instrument. • Return the plates to the tissue culture incubator and incubate the culture for an additional 48 hours at 37° C. under 5% CO2. • At the completion of this incubation, add Alamar Blue solution diluted 1:40 in PBS to each well (10 μL/well) to achieve a final dilution of 1:200. • Incubate the plates for an additional 2-3 hours at 37° C. under 5% CO2. • Read the Relative Fluorescence Intensity (RFU) of wells on a standard plate reader as a measure of relative cell growth. […] 4.4.

[2] = Solubility in PBS pH 7.4 with 1% DMSO; conditions: for solubility at 24 h: phosphate buffered saline with 1% DMSO, pH 7.4, aqueous buffer, kinetic from dmso stock
Description: Solubility was determined in phosphate buffered saline (PBS) pH 7.4 with 1% DMSO. Each compound was prepared in duplicate at 100 μM in both 100% DMSO and PBS with 1% DMSO. Compounds were allowed to equilibrate at room temperature with a 250 rpm orbital shake for 24 hours. After equilibration, samples were analyzed by UPLC-MS (Waters, Milford, Mass.) with compounds detected by SIR detection on a single quadrupole mass spectrometer. The DMSO samples were used to create a two-point calibration curve to which the response in PBS was fit.

[3] = Table 4, PBS pH 7.4 with 1% DMSO, 24 hours, room temperature

Structure (SMILES): CCOC(=O)N1C(=O)C2(CCOCC2)N(c2ccc(C)cc2)C1=S [CID 56604818]
Drop in activity / potency relative to hit CID3889161 (Candida albicans CaCi-2): 100 fold

Structure (SMILES): CCOC(=O)N1C(=S)N(c2ccc(C)cc2)C(=O)C12CCCCC2 [CID 56604852]
Activity against C. albicans (Candida albicans CaCi-2): inactive

Structure (SMILES): Cc1ccc(N2C(=S)N(C(=O)Oc3ccccc3)C(=O)C23CCCCC3)cc1 [CID 56604875]
Activity against C. albicans (Candida albicans CaCi-2): no activity
Activity against C. albicans CaCi-17 as worded in the text (Candida albicans CaCi-17): no activity

Structure (SMILES): CCOC(=O)N1C(=O)C2(CCCCC2)N(Cc2ccccc2)C1=S [CID 56604878]
Drop in activity / potency relative to hit CID3889161 (Candida albicans CaCi-2): 10 fold

Structure (SMILES): Cc1ccc(N2C(=S)NC(=O)C23CCCCC3)cc1 [CID 56604892]
Activity against C. albicans (Candida albicans CaCi-2): failed to inhibit C. albicans growth

Growth Inhibition Activity, IC50 (μM), C. albicans (n = 3) CaCi-2 (Candida albicans CaCi-2; Table 7): inactive
Growth Inhibition Activity, IC50 (μM), C. albicans (n = 3) CaCi-17 (Candida albicans CaCi-17; Table 7): inactive
solubility at 24 h [2]: > 100 µM
Structure (SMILES): Cc1ccc(N2CC(=O)NC2=O)cc1 [compound 759335]
Growth Inhibition Activity, IC50 (μM), 3T3 Fibroblasts (n = 1) ([1]; Table 7): Inactive

Growth Inhibition Activity, IC50 (μM), C. albicans (n = 3) CaCi-2 (Candida albicans CaCi-2; Table 7): inactive
Growth Inhibition Activity, IC50 (μM), C. albicans (n = 3) CaCi-17 (Candida albicans CaCi-17; Table 7): inactive
solubility at 24 h [2]: 79 µM (≈ 20.6 µg/mL)
Structure (SMILES): O=C1NC(=S)N(c2ccccc2)C12CCCCC2 [compound 823120]
Growth Inhibition Activity, IC50 (μM), 3T3 Fibroblasts (n = 1) ([1]; Table 7): Inactive

Structure (SMILES): COC(=O)N1C(=O)C2(CCCCC2)N(c2ccc(C)cc2)C1=S [compound 3951437]
IC50 (Candida albicans CaCi-2; Table 3): 1.9 µM
IC50 (Candida albicans CaCi-17; Table 3): 17.1 µM
Growth Inhibition Activity, IC50 (μM), 3T3 Fibroblasts (n = 1) ([1]; Table 3): Inactive

Growth Inhibition Activity, IC50 (μM), C. albicans (n = 3) CaCi-2 (Candida albicans CaCi-2; Table 7): inactive
Growth Inhibition Activity, IC50 (μM), C. albicans (n = 3) CaCi-17 (Candida albicans CaCi-17; Table 7): inactive
solubility at 24 h [2]: > 100 µM
Structure (SMILES): O=C1NC(=S)N(Cc2ccccc2)C12CCCCC2 [compound 14297244]
Growth Inhibition Activity, IC50 (μM), 3T3 Fibroblasts (n = 1) ([1]; Table 7): Inactive

Structure (SMILES): CCOC(=O)N1C(=O)C2(CCCCC2)N(c2ccccc2C)C1=S [compound 24052146]
IC50 (Candida albicans CaCi-2; Table 4): 1.2 µM
IC50 (Candida albicans CaCi-17; Table 4): 23.9 µM
Growth Inhibition Activity, IC50 (μM), 3T3 Fibroblasts (n = 1) ([1]; Table 4): Inactive
PBS Solubility [2, 3]: 18 µM

Growth Inhibition Activity, IC50 (μM), C. albicans (n = 3) CaCi-2 (Candida albicans CaCi-2; Table 7): inactive
Growth Inhibition Activity, IC50 (μM), C. albicans (n = 3) CaCi-17 (Candida albicans CaCi-17; Table 7): inactive
solubility at 24 h [2]: 62 µM (≈ 15.3 µg/mL)
Structure (SMILES): Cc1ccc(N2C(=S)NC(=O)C23CCC3)cc1 [compound 56604811]
Growth Inhibition Activity, IC50 (μM), 3T3 Fibroblasts (n = 1) ([1]; Table 7): Inactive

IC50 (Candida albicans CaCi-2; Table 4): 0.8 µM
IC50 (Candida albicans CaCi-17; Table 4): 16.2 µM
PBS Solubility ([2]; pH 7.4): <1.0 µM
Structure (SMILES): CCOC(=O)N1C(=O)C2(CCCCC2)N(c2ccc(C(F)(F)F)cc2)C1=S [compound 56604813]
IC50 ([1]; Table 4): 12.5 µM

Growth Inhibition Activity, IC50 (μM), C. albicans (n = 3) CaCi-2 (Candida albicans CaCi-2; Table 3): inactive
Growth Inhibition Activity, IC50 (μM), C. albicans (n = 3) CaCi-17 (Candida albicans CaCi-17; Table 3): inactive
PBS Solubility ([2]; pH 7.4): <1.0 µM
Structure (SMILES): CCCCN1C(=O)C2(CCCCC2)N(c2ccc(C)cc2)C1=S [compound 56604814]
IC50 ([1]; Table 3): 24.2 µM

Structure (SMILES): CCOC(=O)N1C(=O)C2(CCCCC2)N(c2ccc(C(C)C)cc2)C1=S [compound 56604817]
Growth Inhibition Activity, IC50 (μM), C. albicans (n = 3) CaCi-2 (Candida albicans CaCi-2; Table 4): inactive
Growth Inhibition Activity, IC50 (μM), C. albicans (n = 3) CaCi-17 (Candida albicans CaCi-17; Table 4): inactive
IC50 ([1]; Table 4): 13.8 µM
PBS Solubility [2, 3]: <1.0 µM

IC50 (Candida albicans CaCi-2; Table 5): 20.6 µM
Growth Inhibition Activity, IC50 (μM), C. albicans (n = 3) CaCi-17 (Candida albicans CaCi-17; Table 5): inactive
PBS Solubility ([2]; pH 7.4): 28.5 µM
Structure (SMILES): CCOC(=O)N1C(=O)C2(CCOCC2)N(c2ccc(C)cc2)C1=S [compound 56604818]
Growth Inhibition Activity, IC50 (μM), 3T3 Fibroblasts (n = 1) ([1]; Table 5): Inactive
